Reference: patent publication US20230151003A1, “COMPOUNDS AND METHODS OF USE” (Exelixis, Inc., priority 2020, published 2023)
Counter-ions that a name gives are not always drawn.

molecular target: T1, Mer (Homo sapiens, UniProt Q12866); test: Mer autophosphorylation ELISA in transient transfected 293A cells; type: cell-based; conditions: Table 3 Cellular Activities; MERTK-transfected 293A cells, phospho-Mer ELISA
T1 construct: host or cells: 293A cells (Thermo Fisher #R70507)
T1 sequence (Q12866 21-999): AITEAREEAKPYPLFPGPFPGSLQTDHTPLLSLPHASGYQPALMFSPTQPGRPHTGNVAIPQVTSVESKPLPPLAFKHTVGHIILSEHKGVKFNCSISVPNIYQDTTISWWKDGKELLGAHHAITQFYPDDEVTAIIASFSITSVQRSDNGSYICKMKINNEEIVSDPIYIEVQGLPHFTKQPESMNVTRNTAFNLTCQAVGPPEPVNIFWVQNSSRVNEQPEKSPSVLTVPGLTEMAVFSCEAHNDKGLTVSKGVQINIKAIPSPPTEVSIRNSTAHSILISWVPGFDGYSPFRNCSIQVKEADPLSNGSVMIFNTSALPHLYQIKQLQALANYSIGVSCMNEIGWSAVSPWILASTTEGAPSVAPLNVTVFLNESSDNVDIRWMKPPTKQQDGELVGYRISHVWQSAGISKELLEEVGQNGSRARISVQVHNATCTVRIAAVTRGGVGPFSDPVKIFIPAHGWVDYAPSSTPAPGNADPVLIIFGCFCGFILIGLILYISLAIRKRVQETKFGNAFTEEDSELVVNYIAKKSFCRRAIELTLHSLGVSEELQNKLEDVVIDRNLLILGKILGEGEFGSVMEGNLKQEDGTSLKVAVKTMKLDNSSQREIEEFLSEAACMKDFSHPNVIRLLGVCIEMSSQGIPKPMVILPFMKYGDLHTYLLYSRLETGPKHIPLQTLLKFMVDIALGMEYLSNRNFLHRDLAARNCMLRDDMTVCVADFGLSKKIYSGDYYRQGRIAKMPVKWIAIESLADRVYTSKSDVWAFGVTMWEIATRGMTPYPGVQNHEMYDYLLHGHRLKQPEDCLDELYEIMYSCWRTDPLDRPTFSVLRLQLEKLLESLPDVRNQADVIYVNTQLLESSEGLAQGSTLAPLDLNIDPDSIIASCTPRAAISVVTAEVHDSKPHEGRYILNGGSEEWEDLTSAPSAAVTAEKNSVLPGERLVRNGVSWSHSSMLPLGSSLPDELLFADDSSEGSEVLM
Procedure, shortened: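 293A cells transiently transfected with human MERTK DNA, replated after 24 h, then treated 1 h with 8-point compound dilutions in serum-free medium (0.3% DMSO). Lysates assayed by phospho-Mer sandwich ELISA against phospho-Mer standard; DMSO = 100%, reference inhibitor = 0% activity; IC50 by 4-parameter logistic fit.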

Row | Structure (SMILES) | IC50
1 | COc1cc2nccc(Oc3ccc(NC(=O)c4c5n(cc(-c6ccc(C)s6)c4=O)CCOC5)cc3)c2nc1OC [Compound 305, N-[4-[(6,7-Dimethoxy-1,5-naphthyridin-4-yl)oxy]phenyl]-7-(5-methylthiophen-2-yl)-8-oxo-3,4-dihydro-1H-pyrido[2,1-c][1,4]oxazine-9-carboxamide] | ≤ 100 nM
2 | COc1cc2nccc(Oc3ccc(NC(=O)c4c(C)ccn(-c5ccc(F)cn5)c4=O)cc3F)c2nc1OC [Compound 41, N-[4-[(6,7-Dimethoxy-1,5-naphthyridin-4-yl)oxy]-3-fluorophenyl]-1-(5-fluoropyridin-2-yl)-4-methyl-2-oxopyridine-3-carboxamide] | ≤ 100 nM
3 | COc1cc2nccc(Oc3ccc(NC(=O)c4cnc(C)c(-c5ccco5)c4O)cc3)c2nc1OC [Compound 255, N-[4-[(6,7-Dimethoxy-1,5-naphthyridin-4-yl)oxy]phenyl]-5-(furan-2-yl)-4-hydroxy-6-methylpyridine-3-carboxamide] | ≤ 100 nM
4 | COc1cc2nccc(Oc3ccc(NC(=O)c4cnc(C)c(-c5ccco5)n4)cc3F)c2nc1OC [Compound 269, N-[4-[(6,7-Dimethoxy-1,5-naphthyridin-4-yl)oxy]-3-fluorophenyl]-6-(furan-2-yl)-5-methylpyrazine-2-carboxamide] | ≤ 100 nM
5 | COc1cc2nccc(Oc3ccc(NC(=O)c4c(C)n(C)cc(-c5ccc(F)cn5)c4=O)cc3F)c2nc1OC [Compound 71, N-[4-[(6,7-Dimethoxy-1,5-naphthyridin-4-yl)oxy]-3-fluorophenyl]-5-(5-fluoropyridin-2-yl)-1,2-dimethyl-4-oxopyridine-3-carboxamide] | ≤ 100 nM
6 | COc1cc2nccc(Oc3ccc(NC(=O)c4cc(C(C)=O)c(C)n(-c5ccco5)c4=O)cc3)c2nc1OC [Compound 237, 5-Acetyl-N-[4-[(6,7-dimethoxy-1,5-naphthyridin-4-yl)oxy]phenyl]-1-(furan-2-yl)-6-methyl-2-oxopyridine-3-carboxamide] | ≤ 100 nM
7 | COc1cc2nccc(Oc3ccc(NC(=O)c4cccn(-c5cc[n+]([O-])cc5)c4=O)cc3F)c2nc1OC [Compound 247, N-[4-[(6,7-Dimethoxy-1,5-naphthyridin-4-yl)oxy]-3-fluorophenyl]-1-(1-oxidopyridin-1-ium-4-yl)-2-oxopyridine-3-carboxamide hydrochloride] | ≤ 100 nM
8 | COc1cc2nccc(Oc3ccc(NC(=O)c4ccc(C)n(-c5ncc(F)cc5C)c4=O)cc3F)c2nc1OC [Compound 51, N-[4-[(6,7-Dimethoxy-1,5-naphthyridin-4-yl)oxy]-3-fluorophenyl]-1-(5-fluoro-3-methylpyridin-2-yl)-6-methyl-2-oxopyridine-3-carboxamide] | ≤ 100 nM
9 | COc1cnc2c(Oc3ccc(NC(=O)c4c(C)ncc(-c5ccccn5)c4O)cc3F)ccnc2c1 [Compound 70, N-[3-Fluoro-4-[(7-methoxy-1,5-naphthyridin-4-yl)oxy]phenyl]-4-hydroxy-2-methyl-5-pyridin-2-ylpyridine-3-carboxamide] | ≤ 100 nM

Results, then the compound that gave them:

Row | IC50 | Structure (SMILES)
10 | ≤ 100 nM | COc1cc2nccc(Oc3ccc(NC(=O)c4ccc(C)n(-c5ccc(F)cn5)c4=O)cc3F)c2nc1OC [Compound 43, N-[4-[(6,7-Dimethoxy-1,5-naphthyridin-4-yl)oxy]-3-fluorophenyl]-1-(5-fluoropyridin-2-yl)-6-methyl-2-oxopyridine-3-carboxamide]
11 | ≤ 100 nM | Cc1ccc(C(=O)Nc2ccc(Oc3ccnc4cccnc34)c(F)c2)c(=O)n1-c1ccc(F)cn1 [Compound 48, N-[3-Fluoro-4-(1,5-naphthyridin-4-yloxy)phenyl]-1-(5-fluoropyridin-2-yl)-6-methyl-2-oxopyridine-3-carboxamide]
12 | ≤ 100 nM | COc1cc2nccc(Oc3ccc(NC(=O)c4cccn(-c5ccncc5)c4=O)cc3F)c2nc1OC [Compound 229, N-[4-[(6,7-Dimethoxy-1,5-naphthyridin-4-yl)oxy]-3-fluorophenyl]-2-oxo-1-pyridin-4-ylpyridine-3-carboxamide]
13 | ≤ 100 nM | COCCOc1cc2nccc(Oc3ccc(NC(=O)c4cnc(C)c(-c5ccco5)c4O)cc3F)c2nc1OC [Compound 260, N-[3-Fluoro-4-[[6-methoxy-7-(2-methoxyethoxy)-1,5-naphthyridin-4-yl]oxy]phenyl]-5-(furan-2-yl)-4-hydroxy-6-methylpyridine-3-carboxamide]
14 | ≤ 100 nM | COc1cc2nccc(Oc3ccc(NC(=O)c4c(C)ncc(-c5ccc(F)cn5)c4O)cc3F)c2nc1OC [Compound 68, N-[4-[(6,7-Dimethoxy-1,5-naphthyridin-4-yl)oxy]-3-fluorophenyl]-5-(5-fluoropyridin-2-yl)-4-hydroxy-2-methylpyridine-3-carboxamide]
15 | ≤ 100 nM | COc1cc2nccc(Oc3ccc(NC(=O)c4ccc(C)n(-c5ccnc(C)c5)c4=O)cc3F)c2nc1OC [Compound 230, N-[4-[(6,7-Dimethoxy-1,5-naphthyridin-4-yl)oxy]-3-fluorophenyl]-6-methyl-1-(2-methylpyridin-4-yl)-2-oxopyridine-3-carboxamide]
16 | ≤ 100 nM | COc1cc2nccc(Oc3ccc(NC(=O)c4c5n(cc(-c6ccco6)c4=O)CCOC5)cc3F)c2nc1OC [Compound 297, N-[4-[(6,7-Dimethoxy-1,5-naphthyridin-4-yl)oxy]-3-fluorophenyl]-7-(furan-2-yl)-8-oxo-3,4-dihydro-1H-pyrido[2,1-c][1,4]oxazine-9-carboxamide]
17 | ≤ 100 nM | COc1cc2nccc(Oc3ccc(NC(=O)c4c5n(cc(-c6cccs6)c4=O)CCOC5)cc3)c2nc1OC [Compound 299, N-[4-[(6,7-Dimethoxy-1,5-naphthyridin-4-yl)oxy]phenyl]-8-oxo-7-thiophen-2-yl-3,4-dihydro-1H-pyrido[2,1-c][1,4]oxazine-9-carboxamide]
18 | ≤ 100 nM | COc1cc2nccc(Oc3ccc(NC(=O)c4cc(C#N)c(C)n(-c5ccc(F)cn5)c4=O)cc3F)c2nc1OC [Compound 56, 5-Cyano-N-[4-[(6,7-dimethoxy-1,5-naphthyridin-4-yl)oxy]-3-fluorophenyl]-1-(5-fluoropyridin-2-yl)-6-methyl-2-oxopyridine-3-carboxamide]
19 | ≤ 100 nM | COc1cc2nccc(Oc3ccc(NC(=O)c4c5n(c(C)c(-c6ccsc6)c4=O)CCOC5)cc3F)c2nc1OC [Compound 307, N-[4-[(6,7-Dimethoxy-1,5-naphthyridin-4-yl)oxy]-3-fluorophenyl]-6-methyl-8-oxo-7-thiophen-3-yl-3,4-dihydro-1H-pyrido[2,1-c][1,4]oxazine-9-carboxamide]
20 | ≤ 100 nM | COc1cc2nccc(Oc3ccc(NC(=O)c4ccc(C)n(-c5ccncc5F)c4=O)cc3F)c2nc1OC [Compound 220, N-[4-[(6,7-Dimethoxy-1,5-naphthyridin-4-yl)oxy]-3-fluorophenyl]-1-(3-fluoropyridin-4-yl)-6-methyl-2-oxopyridine-3-carboxamide]
21 | ≤ 100 nM | COCc1nc(C)c(-c2ccc(F)cn2)c(O)c1C(=O)Nc1ccc(Oc2ccnc3cc(OC)c(OC)nc23)c(F)c1 [Compound 214, N-[4-[(6,7-Dimethoxy-1,5-naphthyridin-4-yl)oxy]-3-fluorophenyl]-5-(5-fluoropyridin-2-yl)-4-hydroxy-2-(methoxymethyl)-6-methylpyridine-3-carboxamid]
